Test results from patent US20040258652A1, “Hair treatment compositions and hair after-treatment compositions for protection against damage by chemical treatment and for the repair of already damaged hair comprising as active substances alkylguanidine compounds” (GOLDSCHMIDT AG, priority 2003, published 2004).

Assays:
[1] = Force for the extension of individual damaged hairs by 15% before and after treatment (DiaStron Mtt670); parameters: species or system human; conditions: hair rinse A with 2.0% by weight of compound, pH 5, 30 min immersion, permanently waved and bleached Euro hair, measured wet, difference of 15% extension forces after and before treatment, at least 30 measurements
Method: Euro hair (hair from Europeans), left natural.
Preliminary Damage to the Hair
1×each permanent waving and bleaching using commercially available products.
Treatment of the damaged hair:
The damaged hair was treated with the exemplary formulations.
For each test formulation, 30 damp individual hairs were measured. The experimental procedure was as follows:
1. The predamaged hairs were wetted with water and using the fully automatic device Mtt670 from DiaStron the force was measured which was necessary for 15% extension.
2. For recovery, the hairs were immersed for at least 2 h in a water bath.
3. The hairs were then immersed for 30 min in the test formulation and then each hair was rinsed for about 7 s under running water.
4. The hairs were left overnight (=12 h) to dry in air.
5. The force which was necessary in order to extend the treated hair by 15% was again measured as described above, after wetting with water.
6. The difference between the 15% extension forces before and after treatment with the test formulation was calculated and used as a measure of the improvement in the mechanical resistivity of the damaged hairs by the alkylguanidine compounds.

[2] = Determination of the protein loss of predamaged hair (extraction with Na lauryl ether sulfate, UV absorption at 295 nm); parameters: species or system human; conditions: hair rinse of Tab. 3 with 2.0% active, pH 5.0, 30 min; predamaged hair (permanently waved and bleached); extraction with 8% Na lauryl ether sulfate 3 h at room temperature; at least three measurements
From the text: The more severely damaged the hair, e.g., by permanent waving or bleaching, the higher the concentration of water-soluble protein fragments/peptides in the hair which can be extracted with water or surfactants. Extraction with surfactants simulates the washing of the hair by means of a shampoo. Also during hair washing, damaged hair loses more peptides than healthy hair.
For illustration, the hair was predamaged. For this, the hair was permanently waved and bleached 1×each
The predamaged strands of hair (weight: about 4 g) were immersed in the test formulation (time of action: 30 min) and then rinsed off for 1 min under running tap water (T=35° C.).
They were then left to dry in the air for 12 hours.
Determination of the Protein Loss:
About 0.5 g of hair+about 15 ml of Na lauryl ether sulfate (8%) were shaken at room temperature for 3 h. The solution was subsequently decanted and centrifuged. The protein concentration of the solution was then determined photometrically by measurement of the UV absorption at 295 nm. A keratin hydrolysate was used as a standard (M=1000, Promois WK-H, Seiwa Kasei).

CC(=O)O.CCCCN(CCCC)C(=N)N [HSP A where R^1 = C4; R^2 = C4; acetate, N,N-dibutylguanidinium acetate]
Force 15%after force 15%before ([1]; Table 2B): 2.16 mN

CC(O)C(=O)O.CCCCCCCCNC(=N)N [HSP A where R^1 = H; R^2 = C8; lactate, octylguanidinium lactate]
Force 15%after force 15%before ([1]; Table 2B): 3.65 mN

CC(=O)O.CCCCCCCCNC(=N)N [HSP A where R^2 = C8, octylguanidinium acetate]
Force 15%after force 15%before ([1]; Table 2A): 3.51 mN
Protein loss [2]: 26.8 mg/g of hair

CC(=O)O.CC(=O)O.N=C(N)NCCCCCCNC(=N)N [hexane-1,6-diguanidinium acetate]
Force 15%after force 15%before ([1]; Table 2B): 3.45 mN
